Data published in publication PMC7988117, “OMN6 a novel bioengineered peptide for the treatment of multidrug resistant Gram negative bacteria” (Scientific Reports, 2021).
In brackets after ≈: the same amount, converted by molar mass. Like-named read-outs stand apart in the source and are kept apart here. Bridge positions count the residues as written; N and C are the ends. Peptide text beside a SMILES is read from it.

Experiments:
[1] = test system: Gram-positive strains (S. aureus, E. faecium, E. faecalis, B. cereus); test: MIC, broth microdilution (CLSI), summary over strains; format: cell-based; conditions: E. faecalis and B. cereus, summary of Table 1
Text: (Italy), an Evotec Company.

Bacillus cereus = conditions: B. cereus ATCC 14579; CLSI broth microdilution, Muller-Hinton broth, 18–24 h, 35 ± 2 °C
Experimental: (§1) This experiment was conducted by Omnix Medical, by JMI Laboratories (North Liberty, IA, USA) and by Aptuit (Verona) S.r.l. (Italy), an Evotec Company. All studies were performed according to Clinical and Laboratory Standards Institute guidelines[30] for the application of the broth microdilution method. Reference strains from American Type Culture Collection (ATCC) and clinical isolates from the Evotec EvostrAIn and the JMI Laboratories SENTRY surveillance program culture collections (Acinetobacter baumannii: ACC 00445, ACC 00527, ACC 00535, ATCC 17978, ATCC 19606, ATCC BAA-1793, ACC 01076, ACC 01077, NCTC 13420, JMI #1088100 and JMI #1001007; Klebsiella pneumoniae: ATCC 43816 and ATCC BAA-1705; Escherichia coli: ACC 01001 and ATCC 25922; Staphylococcus aureus: ATCC 29213, ATCC BAA-44 and ATCC 33591; Bacillus cereus: ATCC 14579; Enterococcus faecalis: ATCC 29212; Enterococcus faecium: ATCC BAA-2319) were used. The antimicrobial activity of OMN6 was determined by 12 serial two-fold dilutions in water of the 100-fold highest compound solution; 1 µL of each well was transferred into 96 microtiter plates (final concentration: 256–0.12 µg/mL). In most strains, same procedure was used to determine the colistin antimicrobial activity (final concentration: 32–0.015 µg/mL). Bacterial strains were sub-cultured on the agar plates and incubated for 18–24 h at 35 ± 2 °C in ambient air. Following incubation, the inoculum was prepared from isolated colonies and adjusted to 0.5 McFarland turbidity standard (1 to 2 × 10^8 colony-forming units/mL) in 0.9% saline. Bacterial suspension was then diluted 1:200 in Muller-Hinton broth (from BD; Becton, Dickinson and Company, Franklin Lakes, NJ, USA) and within 15 min 100 µL/well were dispensed. Growth-control wells and sterility-check wells (uninoculated well) were present in each plate. Plates were incubated for 18–24 h at 35 ± 2 °C in ambient air. […] The antimicrobial activity to other antibiotics on most bacterial strains was determined by Evotec using the antimicrobial sensitive test from the VITEK 2 automated microbiology system (bioMérieux SA, Marcy l'Etoile, France; data presented in Table S1), or by ATCC according to CLSI (Clinical and Laboratory Standards Institute) guidelines[30]

Acinetobacter baumannii = conditions: for MIC: CLSI broth microdilution, Muller-Hinton broth, 18–24 h, 35 ± 2 °C
Experimental: as §1

Enterococcus faecalis = conditions: E. faecalis ATCC 29212 (Van-S); CLSI broth microdilution, Muller-Hinton broth, 18–24 h, 35 ± 2 °C
Experimental: as §1

Klebsiella pneumoniae = conditions: CLSI broth microdilution, Muller-Hinton broth, 18–24 h, 35 ± 2 °C
Experimental: as §1

Staphylococcus aureus = conditions: CLSI broth microdilution, Muller-Hinton broth, 18–24 h, 35 ± 2 °C
Experimental: as §1

Gram-negative bacteria = conditions: summary of Table 1, regardless of resistance profile
Experimental: as §1

Escherichia coli = conditions: CLSI broth microdilution, Muller-Hinton broth, 18–24 h, 35 ± 2 °C
Experimental: as §1

Enterococcus faecium = conditions: E. faecium ATCC BAA-2319 (MDR/Van-R); CLSI broth microdilution, Muller-Hinton broth, 18–24 h, 35 ± 2 °C
Experimental: as §1

mouse red blood cells = test: Hemolysis assay; format: cell-based; conditions: 10% mouse erythrocytes, 6.25–200 µM (27–868 µg/mL), 1 h, 37 °C, absorbance 400 nm
Experimental: Red Blood Cells (RBCs) suspension was prepared from whole blood extracted from the heart of Hsd:ICR (CD-1) mice (Envigo, Huntingdon, Cambridgeshire, UK). The study was carried out in accordance with relevant guidelines and regulations, and was approved by the Hebrew University Ethics Committee for the Care and Use of Laboratory Animals under approval number NS-15-14575-3. Briefly, blood was collected in a 24 U/mL heparin tube to prevent coagulation. Then cells were washed with Phosphate Buffered Saline (PBS; Biological Industries) and centrifuged at 200g for 10 min at 20 °C. This operation was repeated three times, then remaining RBCs were resuspended in saline or PBS to form a 10% RBC solution. Increasing concentrations of OMN6 or 1% Tween were added to RBCs. After an incubation of 1 h at 37 °C with shaking at 100 rpm, experiment tubes were centrifuged for 10 min at 200g at room temperature. 100 µL supernatant was extracted from each tube and tested according to the Hemoglobin Assay Kit (Sigma-Aldrich). Hemoglobin levels were determined via absorbance at 400 nm.

Compound: CC[C@H](C)[C@@H]1NC(=O)CNC(=O)[C@H](CC(=O)O)NC(=O)[C@H](CCCNC(=N)N)NC(=O)[C@H]([C@@H](C)CC)NC(=O)[C@H](CC(N)=O)NC(=O)[C@H](CCC(N)=O)NC(=O)CNC(=O)[C@H](C(C)C)NC(=O)[C@H](CCCCN)NC(=O)[C@H](CCC(=O)O)NC(=O)[C@H]([C@@H](C)CC)NC(=O)[C@H](CCCCN)NC(=O)[C@H](CCCCN)NC(=O)[C@H](Cc2ccccc2)NC(=O)[C@H](CC(C)C)NC(=O)[C@H](CCCCN)NC(=O)[C@H](Cc2c[nH]c3ccccc23)NC(=O)[C@H](CCCCN)NC(=O)[C@@H](NC(=O)[C@@H](N)CCSC)CSSC[C@@H](C(N)=O)NC(=O)[C@H](CCCCN)NC(=O)[C@H](C)NC(=O)[C@H]([C@@H](C)CC)NC(=O)[C@H](CCC(N)=O)NC(=O)[C@H]([C@@H](C)O)NC(=O)[C@H](C)NC(=O)[C@H](CCC(N)=O)NC(=O)CNC(=O)[C@H](C(C)C)NC(=O)[C@H](C(C)C)NC(=O)[C@H](C)NC(=O)[C@H](C(C)C)NC(=O)[C@H](C)NC(=O)[C@@H]2CCCN2C(=O)CNC(=O)[C@H](C)NC(=O)[C@H](CCCCN)NC(=O)[C@H]([C@@H](C)CC)NC1=O [OMN6] (H-MCKWKLFKKIEKVGQNIRDGIIKAGPAVAVVGQATQIAKC-NH2; disulfide 2-40; N-terminus assumed)
- MIC on all tested Gram-positive strains [1]: > 256 µg/mL
- MIC (Bacillus cereus): > 256 µg/mL
- MIC (Acinetobacter baumannii; A. baumannii ACC 00445 (MDR/Col-S)): 4 µg/mL (≈ 0.922 µM)
- MIC (Acinetobacter baumannii; A. baumannii ACC 00527 (MDR/Col-R)): 4 µg/mL (≈ 0.922 µM)
- MIC (Acinetobacter baumannii; A. baumannii ACC 00535 (MDR/Col-S)): 4 µg/mL (≈ 0.922 µM)
- MIC (Acinetobacter baumannii; A. baumannii ACC 01076 (MDR/Col-R)): 8 µg/mL (≈ 1.84 µM)
- MIC (Acinetobacter baumannii; A. baumannii ACC 01077 (MDR/Col-R)): 4 µg/mL (≈ 0.922 µM)
- MIC (Acinetobacter baumannii; A. baumannii ATCC 17978 (S)): 8 µg/mL (≈ 1.84 µM)
- MIC (Acinetobacter baumannii; A. baumannii ATCC 19606 (S)): 8 µg/mL (≈ 1.84 µM)
- MIC (Acinetobacter baumannii; A. baumannii ATCC BAA-1793 (MDR)): 8 µg/mL (≈ 1.84 µM)
- MICs of the A. baumannii strains (Acinetobacter baumannii; summary of Table 1, sensitive and multidrug resistant strains): 4 to 8 µg/mL
- MIC (Enterococcus faecalis): > 256 µg/mL
- MIC (Klebsiella pneumoniae; K. pneumoniae ATCC 43816 (S)): 16 µg/mL (≈ 3.69 µM)
- MIC (Klebsiella pneumoniae; K. pneumoniae ATCC BAA-1705 (MDR)): 16 µg/mL (≈ 3.69 µM)
- MIC (Staphylococcus aureus; S. aureus ATCC 29213 (MSSA)): > 256 µg/mL
- MIC (Staphylococcus aureus; S. aureus ATCC 33591 (MRSA)): > 256 µg/mL
- MIC (Staphylococcus aureus; S. aureus ATCC BAA-44 (MDR/MRSA)): > 256 µg/mL
- MIC on Gram-negative bacteria (all tested strains) (Gram-negative bacteria): ≤ 32 µg/mL
- MIC (Escherichia coli; E. coli ACC 01001 (mcr-1)): 32 µg/mL (≈ 7.37 µM)
- MIC (Escherichia coli; E. coli ATCC 25922 (S)): 16 µg/mL (≈ 3.69 µM)
- MIC (Enterococcus faecium): > 256 µg/mL
- Hemolysis expressed as free Hemoglobin (mouse red blood cells): no hemolysis
